We go through 22 molecules from patent US10266548B2, “Substituted benzylindazoles for use as Bub1 kinase inhibitors in the treatment of hyperproliferative diseases” (Bayer Intellectual Property GmbH, priority 2011, dated 2019).

Counter-ions that a name gives are not always drawn. Where only a bound is given, the exact number is not on record here.

Chain of catalytic domain of human Bub1 (amino acids 704-1085) (O43683 704-1085): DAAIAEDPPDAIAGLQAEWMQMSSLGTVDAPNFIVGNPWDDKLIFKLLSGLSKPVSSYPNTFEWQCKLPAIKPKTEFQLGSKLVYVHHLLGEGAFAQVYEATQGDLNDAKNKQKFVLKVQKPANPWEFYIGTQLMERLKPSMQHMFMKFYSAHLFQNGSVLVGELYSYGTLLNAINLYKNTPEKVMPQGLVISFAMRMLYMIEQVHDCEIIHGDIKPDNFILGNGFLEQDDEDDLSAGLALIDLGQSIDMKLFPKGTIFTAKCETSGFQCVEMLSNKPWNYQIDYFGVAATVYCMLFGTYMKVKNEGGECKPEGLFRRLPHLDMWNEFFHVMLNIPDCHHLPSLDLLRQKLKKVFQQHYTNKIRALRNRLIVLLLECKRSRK

The first test deals with HeLa cells. The test is described as follows: Proliferation assay (HeLa cell line). The note with it: 4 days, crystal violet, read-out: Biological Assay 2: Proliferation assay (HeLa cell line) median IC50. It is filed as cell-based. Here is the method: Cultivated tumor cells (cells were ordered from ATCC, except HeLa-MaTu and HeLa-MaTu-ADR, which were ordered from EPO-GmbH, Berlin) were plated at a density of 1000 to 5000 cells/well, depending on the growth rate of the respective cell line, in a 96-well multititer plate in 200 μL of their respective growth medium supplemented 10% fetal calf serum. After 24 hours, the cells of one plate (zero-point plate) were stained with crystal violet (see below), while the medium of the other plates was replaced by fresh culture medium (200 μl), to which the test substances were added in various concentrations (0 μM, as well as in the range of 0.001-10 μM; the final concentration of the solvent dimethyl sulfoxide was 0.5%). The cells were incubated for 4 days in the presence of test substances. Cell proliferation was determined by staining the cells with crystal violet: the cells were fixed by adding 20 μl/measuring point of an 11% glutaric aldehyde solution for 15 minutes at room temperature. After three washing cycles of the fixed cells with water, the plates were dried at room temperature. The cells were stained by adding 100 μl/measuring point of a 0.1% crystal violet solution (pH 3.0). After three washing cycles of the stained cells with water, the plates were dried at room temperature. The dye was dissolved by adding 100 μl/measuring point of a 10% acetic acid solution. […] The change of cell number, in percent, was calculated by normalization of the measured values to the aborbtion values of the zero-point plate (=0%) and the absorbtion of the untreated (0 μm) cells (=100%). The IC50 values were determined by means of a 4 parameter fit using the company's own software.
With `CCOc1cc(F)c(Cn2nc(-c3ncc(OCC[S+](C)[O-])c(Nc4ccncc4)n3)c3ccccc32)c(F)c1` (single isomer, unassigned) [Example 36-1, 2-[1-(4-ethoxy-2,6-difluorobenzyl)-1H-indazol-3-yl]-5-[2-(methylsulfinyl)ethoxy]-N-(pyridin-4-yl)pyrimidin-4-amine], the IC50 is 3300 nM.

For `CCOc1cc(F)c(Cn2nc(-c3ncc(OCC[S+](C)[O-])c(Nc4ccncc4)n3)c3ccccc32)c(F)c1` (single isomer, unassigned) [Example 36-3, 2-[1-(4-ethoxy-2,6-difluorobenzyl)-1H-indazol-3-yl]-5-[2-(methylsulfinyl)ethoxy]-N-(pyridin-4-yl)pyrimidin-4-amine], the IC50 is 430 nM.

As for `CCOc1cc(F)c(Cn2nc(-c3ncc(OCC[S+](C)[O-])c(Nc4ccncc4)n3)c3ccccc32)c(F)c1` (single isomer, unassigned) [Example 36-2, 2-[1-(4-ethoxy-2,6-difluorobenzyl)-1H-indazol-3-yl]-5-[2-(methylsulfinyl)ethoxy]-N-(pyridin-4-yl)pyrimidin-4-amine], the IC50 is 440 nM.

The test is the same for the next values; noted with them: Homo sapiens, 96 h, 4 days, crystal violet, read-out: Biological Assay 2: Proliferation assay (HeLa cell line) median IC50.
As for `CCOc1cc(F)c(Cn2nc(-c3ncc(OCC(=O)N4CC(F)(F)C4)c(Nc4ccncc4)n3)c3ccccc32)c(F)c1` [Example 4-15, 1-(3,3-difluoroazetidin-1-yl)-2-({2-[1-(4-ethoxy-2,6-difluorobenzyl)-1H-indazol-3-yl]-4-(pyridin-4-ylamino)pyrimidin-5-yl}oxy)ethanone], the IC50 was determined as 3900 nM.

Regarding `CCOc1cc(F)c(Cn2nc(-c3ncc(OCCSC)c(Nc4ccncc4)n3)c3ccccc32)c(F)c1` [Example 4-16, 2-[1-(4-ethoxy-2,6-difluorobenzyl)-1H-indazol-3-yl]-5-[2-(methylsulfanyl)ethoxy]-N-(pyridin-4-yl)pyrimidin-4-amine], the IC50 is 4400 nM.

For the molecule `CCOc1cc(F)c(Cn2nc(-c3ncc(OCCN4CCOCC4)c(Nc4ccncc4)n3)c3ccccc32)c(F)c1` [Example 4-12, 2-[1-(4-ethoxy-2,6-difluorobenzyl)-1H-indazol-3-yl]-5-[2-(morpholin-4-yl)ethoxy]-N-(pyridin-4-yl)pyrimidin-4-amine], the IC50 is 9000 nM.

Staying with this test, now noted: Homo sapiens, 96 h, read-out: Biological Assay 2: Proliferation assay (HeLa cell line) median IC50.
Regarding `CCOc1cc(F)c(Cn2nc(-c3ncc(OCCN)c(Nc4ccncc4)n3)c3ccccc32)c(F)c1` [Example 38-1, 5-(2-aminoethoxy)-2-[1-(4-ethoxy-2,6-difluorobenzyl)-1H-indazol-3-yl]-N-(pyridin-4-yl)pyrimidin-4-amine], the IC50 was 1400 nM.

On to `CCOc1cc(F)c(Cn2nc(-c3ncc(OCCOCCO)c(Nc4ccncc4)n3)c3ccccc32)c(F)c1` [Example 4-17, 2-[2-({2-[1-(4-ethoxy-2,6-difluorobenzyl)-1H-indazol-3-yl]-4-(pyridin-4-ylamino)pyrimidin-5-yl}oxy)ethoxy] ethanol], for which the IC50 amounted to 4800 nM.

The test is the same for the next values; noted with them: read-out: Biological Assay 2: Proliferation assay (HeLa cell line) median IC50, 4 days, crystal violet.
Turning to `OC[C@@H](O)COc1cnc(-c2nn(Cc3ccccc3F)c3ccccc23)nc1Nc1ccncc1` [Example 15-6, (2R)-3-({2-[1-(2-fluorobenzyl)-1H-indazol-3-yl]-4-(pyridin-4-ylamino)pyrimidin-5-yl}oxy)propane-1,2-diol hydrochloride (1:1)], the IC50 is not below 10000 nM.

Another test concerns the target catalytic domain of human Bub1 (amino acids 704-1085) (Homo sapiens (Human), UniProt O43683). The test is described as follows: Bub1 kinase assay (TR-FRET). The following applies: 10 μM ATP, 1 μM peptide substrate; read-out: Biological Assay 1: Bub1 kinase assay median IC50. It is filed as biochemical. Here is the method:
To this end, 100-fold concentrated compound solutions (in DMSO) were previously prepared by serial dilution (1:3.4) of 2 mM stocks in a clear low volume 384-well source microtiter plate (Greiner Bio-One, Frickenhausen, Germany), from which 50 nl of compounds were transferred into a black low volume test microtiter plate from the same supplier. […] The resulting mixture (5 μl final volume) was incubated at 22° C. during 60 min., and the reaction was stopped by the addition of 5 μl of an aqueous EDTA-solution (50 mM EDTA, in 100 mM HEPES pH 7.5 and 0.2% (w/v) bovine serum albumin) which also contained the TR-FRET detection reagents (0.2 μM streptavidin-XL665 [Cisbio Bioassays, Codolet, France] and 1 nM anti-phosho-Serine antibody [Merck Millipore, cat. #35-001] and 0.4 nM LANCE EU-W1024 labeled anti-mouse IgG antibody [Perkin-Elmer, product no. AD0077, alternatively a Terbium-cryptate-labeled anti-mouse IgG antibody from Cisbio Bioassays can be used]). The stopped reaction mixture was further incubated 1 h at 22° C. in order to allow the formation of complexes between peptides and detection reagents. Subsequently, the amount of product was evaluated by measurement of the resonance energy transfer from the Eu-chelate-antlbody complex recognizing the Phosphoserlne residue to the streptavidin-XL665 bound to the biotin moiety of the peptide. […] IC50 values were calculated by fitting the normalized inhibition data to a 4-parameter logistic equation (Minimum, Maximum, IC50, Hill; Y=Max+(Min−Max)/(1+(X/IC50)Hill)) using a Bayer-proprietary analysis software.
Background: TR-FRET usually uses a lanthanide donor and a delayed reading to cut background.
For the molecule `COc1cnc(-c2nn(Cc3ccccc3Cl)c3ccccc23)nc1N(Cc1ccccc1Cl)c1ccncc1` [Example 2-10-2, N-(2-chlorobenzyl)-2-[1-(2-chlorobenzyl)-1H-indazol-3-yl]-5-methoxy-N-(pyridin-4-yl)pyrimidin-4-amine], the IC50 came to 1200 nM.

Take `COC(=O)c1cnccc1Nc1nc(-c2nn(Cc3ccccc3F)c3ccccc23)ncc1OC` [Example 24-2, methyl 4-({2-[1-(2-fluorobenzyl)-1H-indazol-3-yl]-5-methoxypyrimidin-4-yl}amino)pyridine-3-carboxylate]: the IC50 came out at 20000 nM.

For `COc1cnc(-c2nn(Cc3ccc(C)c(F)c3F)c3ccccc23)nc1N(Cc1ccc(C)c(F)c1F)c1ccncc1` [Example 2-8-2, N-(2,3-difluoro-4-methylbenzyl)-2-[1-(2,3-difluoro-4-methylbenzyl)-1H-indazol-3-yl]-5-methoxy-N-(pyridin-4-yl)pyrimidin-4-amine], the IC50 was found to be 290 nM.

In the case of `COc1cnc(-c2nn(Cc3ccccc3Br)c3ccccc23)nc1N(Cc1ccccc1Br)c1ccncc1` [Example 2-21-2, N-(2-bromobenzyl)-2-[1-(2-bromobenzyl)-1H-indazol-3-yl]-5-methoxy-N-(pyridin-4-yl)pyrimidin-4-amine], the IC50 is 20000 nM.

Take `CNC(=O)c1cc(F)c(Cn2nc(-c3ncc(OC)c(Nc4ccncc4)n3)c3ccccc32)c(F)c1` [Example 20-6, 3,5-difluoro-4-({3-[5-methoxy-4-(pyridin-4-yla-mino)pyrimidin-2-yl]-1H-indazol-1-yl}methyl)-N-methylbenzamide]: the IC50 was 6700 nM.

Take `CCOc1cc(F)c(Cn2nc(-c3nccc(N(c4ccncc4)C(F)F)n3)c3ccccc32)c(F)c1` [Example 35-1, N-(difluoromethyl)-2-[1-(4-ethoxy-2,6-difluorobenzyl)-1H-indazol-3-yl]-N-(pyridin-4-yl)pyrimidin-4-amine]: the IC50 worked out at 1300 nM.

Turning to `CCOc1cc(F)c(Cn2nc(-c3ncc(OC)c(Nc4ccncc4C#N)n3)c3ccccc32)c(F)c1` [Example 24-5, 4-({2-[1-(4-ethoxy-2,6-difluorobenzyl)-1H-indazol-3-yl]-5-methoxypyrimidin-4-yl}amino)pyridine-3-carbonitrile], the IC50 is 11 nM.

As to `OCC1COc2cnc(-c3nn(Cc4ccccc4F)c4ccccc34)nc2N1c1ccncc1` (stereo not shown) [Example 22-1, {2-[1-(2-fluorobenzyl)-1H-indazol-3-yl]-8-(pyridin-4-yl)-7,8-dihydro-6H-pyrimido[5,4-b][1,4]oxazin-7-yl}methanol], the IC50 worked out at 770 nM.

In the case of `OCC1(COc2cnc(-c3nn(Cc4ccccc4F)c4ccccc34)nc2N(CC2(CO)COC2)c2ccncc2)COC1` [Example 4-2-2, (3-{[(2-[1-(2-fluorobenzyl)-1H-indazol-3-yl]-5-{[3-(hydroxymethyl)oxetan-3-yl]methoxy}pyrimidin-4-yl)(pyridin-4-yl)amino]methyl}oxetan-3-yl)methanol], the IC50 amounted to 430 nM.

For `COc1ccc(Cn2nc(-c3ncc(OC)c(Nc4ccnc(C)c4)n3)c3ccccc32)cc1` [Example 34-4, 5-methoxy-2-[1-(4-methoxybenzyl)-1H-indazol-3-yl)-N-(2-methylpyridin-4-yl)pyrimidin-4-amine], the IC50 was 120 nM.

On to `COc1cnc(-c2nn(Cc3ccc(C(=O)O)cc3Cl)c3ccccc23)nc1Nc1ccncc1` [Example 28-1, 3-chloro-4-({3-[5-methoxy-4-(pyridin-4-ylamino)pyrimidin-2-yl]-1H-indazol-1-yl}methyl)benzoic acid], for which the IC50 worked out at 3700 nM.

As to `COc1cnc(-c2nn(Cc3ccccc3F)c3ccccc23)nc1N(c1ccncc1)c1ccncc1` [Example 24-4], the IC50 stood at 4280 nM.

In the case of `Fc1ccccc1Cn1nc(-c2ncc(OCCc3nnn[nH]3)c(N(CCc3nnn[nH]3)c3ccncc3)n2)c2ccccc21` [Example 4-5-2, 2-[1-(2-fluorobenzyl)-1H-indazol-3-yl]-N-(pyridin-4-yl)-5-[2-(1H-tetrazol-5-yl)ethoxy]-N-[2-(1H-tetrazol-5-yl)ethyl]pyrimidin-4-amine], the IC50 was determined as 330 nM.
